What was measured:
[1] = tested on: TGF-beta-induced phosphorylation of Smad2 and Smad3 in Mv1-Lu cells; assay: Inhibition of Smad2/3 phosphorylation in Mv1Lu cells (Example 35A); format: cell-based, mink Mustela vison; details: Neogale vison, Mv1-Lu cells, TGF-beta 1 5 ng/ml, phospho-Smad2/3 ELISA, read-out: TβR activity (Example 35A)
Summary of the method: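 Serum-starved (16-20 h) Mv1-Lu mink lung epithelial cells were pre-incubated 1.5 h with compound dilutions (0.2% DMSO), then stimulated 1 h with 5 ng/ml TGF-beta 1. Phospho-Smad2 (Ser465/467)/Smad3 (Ser423/425) in lysates was measured by ELISA. IC50 came from dose-response fits between stimulated and unstimulated controls.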

[2] = target: T1, GST-ALK5 (Homo sapiens, UniProt P36897); assay: In-vitro (enzyme) kinase assay, 384-well flashplate (Example 36); format: biochemical; details: GST-ALK5, GST-SMAD2 substrate, 3 mM ATP, 30° C., 45 min; read-out: TβR activity (Example 36)
T1 sequence (P36897 34-503): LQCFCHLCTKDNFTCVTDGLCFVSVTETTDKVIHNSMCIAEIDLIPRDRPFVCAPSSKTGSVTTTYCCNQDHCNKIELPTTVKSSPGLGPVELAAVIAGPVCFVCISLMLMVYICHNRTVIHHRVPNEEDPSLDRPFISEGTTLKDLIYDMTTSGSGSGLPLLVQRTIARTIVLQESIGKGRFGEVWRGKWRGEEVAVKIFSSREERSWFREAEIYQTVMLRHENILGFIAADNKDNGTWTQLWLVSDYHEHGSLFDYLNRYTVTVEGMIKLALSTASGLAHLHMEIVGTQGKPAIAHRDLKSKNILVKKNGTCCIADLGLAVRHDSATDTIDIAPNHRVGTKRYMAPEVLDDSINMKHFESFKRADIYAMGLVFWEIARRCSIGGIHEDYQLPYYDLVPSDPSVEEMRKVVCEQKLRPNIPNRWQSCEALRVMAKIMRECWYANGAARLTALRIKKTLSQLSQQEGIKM
Summary of the method: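 Radiometric flashplate assay: 31.2 nM GST-ALK5 phosphorylating 439 nM GST-SMAD2 with 3 mM ATP plus ³³P-ATP, in HEPES/MgCl2/MnCl2/DTT/BSA buffer pH 7.4, 45 min at 30 °C, 5-10 compound concentrations. EDTA stop, filtration and washing, then radioactivity counted; IC50 derived from the curve.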

| Compound | IC50 [1] | IC50 [2] |
| --- | --- | --- |
| Fc1ccc(Cl)cc1-c1cc(-c2cncc(-c3ccc4c(c3)CNCC4)c2)c2cccnc2n1 [compound 136, 2-(5-Chloro-2-fluoro-phenyl)-4-[5-(1,2,3,4-tetrahydro-isoquinolin-7-yl)-pyridin-3-yl]-[1,8]naphthyridine] | < 100 nM | < 100 nM |
| Fc1ccc(F)c(-c2cc(-c3cccnc3)c3cccnc3n2)c1 [compound 137, 2-(2,5-Difluoro-phenyl)-4-pyridin-3-yl-[1,8]naphthyridine] | > 10000 nM | 1000 to 10000 nM |
| CN1CCN(c2ccc(-c3cncc(-c4cc(-c5cc(F)ccc5F)nc5ncccc45)c3)nn2)CC1 [compound 140, 2-(2,5-Difluoro-phenyl)-4-{5-[6-(4-methyl-piperazin-1-yl)-pyridazin-3-yl]-pyridin-3-yl}-[1,8]naphthyridine] | 1000 to 10000 nM | 100 to 1000 nM |
| CN1CCN(c2cccc(-c3cncc(-c4cc(-c5cc(Cl)ccc5F)nc5ncccc45)c3)n2)CC1 [compound 141, 2-(5-Chloro-2-fluoro-phenyl)-4-[6-(4-methyl-piperazin-1-yl)-[2,3′]bipyridinyl-5′-yl]-[1,8]naphthyridine] | 100 to 1000 nM | 100 to 1000 nM |
| Fc1ccc(F)c(-c2cc(-c3cncc(-c4cccc(OC5CCNCC5)c4)c3)c3cccnc3n2)c1 [compound 144, 2-(2,5-Difluoro-phenyl)-4-{5-[3-(piperidin-4-yloxy)-phenyl]-pyridin-3-yl}-[1,8]naphthyridine] | 100 to 1000 nM | < 100 nM |
| O=S(=O)(c1cccc(-c2cncc(-c3cc(-c4cc(Cl)ccc4F)nc4ncccc34)c2)c1)N1CCNCC1 [compound 145, 2-(5-Chloro-2-fluoro-phenyl)-4-{5-[3-(piperazine-1-sulfonyl)-phenyl]-pyridin-3-yl}-[1,8]naphthyridine] | 1000 to 10000 nM | 100 to 1000 nM |
| CC1(C)CCNc2ccc(-c3cncc(-c4cc(-c5cc(Cl)ccc5F)nc5ncccc45)c3)cc21 [compound 146, 2-(5-Chloro-2-fluoro-phenyl)-4-[5-(4,4-dimethyl-1,2,3,4-tetrahydro-quinolin-6-yl)-pyridin-3-yl]-[1,8]naphthyridine] | 100 to 1000 nM | 100 to 1000 nM |
| Fc1ccc(F)c(-c2cc(-c3cncc(-c4cccc(OCC5CCNCC5)c4)c3)c3cccnc3n2)c1 [compound 147, 2-(2,5-Difluoro-phenyl)-4-{5-[3-(piperidin-4-ylmethoxy)-phenyl]-pyridin-3-yl}-[1,8]naphthyridine] | 1000 to 10000 nM | 100 to 1000 nM |
| Fc1ccc(F)c(-c2cc(-c3cncc(-c4cccc(OCCN5CCNCC5)c4)c3)c3cccnc3n2)c1 [compound 148, 2-(2,5-Difluoro-phenyl)-4-{5-[3-(2-piperazin-1-yl-ethoxy)-phenyl]-pyridin-3-yl}-[1,8]naphthyridine] | < 100 nM | < 100 nM |
| CN1CCc2cc(-c3cncc(-c4cc(-c5cc(Cl)ccc5F)nc5ncccc45)c3)ccc21 [compound 149, 2-(5-Chloro-2-fluoro-phenyl)-4-[5-(1-methyl-2,3-dihydro-1H-indol-5-yl)-pyridin-3-yl]-[1,8]naphthyridine] | < 100 nM | 100 to 1000 nM |
| Cn1ccc2cc(-c3cncc(-c4cc(-c5cc(Cl)ccc5F)nc5ncccc45)c3)ccc21 [compound 150, 2-(5-Chloro-2-fluoro-phenyl)-4-[5-(1-methyl-1H-indol-5-yl)-pyridin-3-yl]-[1,8]naphthyridine] | < 100 nM | 100 to 1000 nM |
| Fc1ccc(Cl)cc1-c1cc(-c2cncc(-c3ccc4c(c3)NCCC4)c2)c2cccnc2n1 [compound 151, 2-(5-Chloro-2-fluoro-phenyl)-4-[5-(1,2,3,4-tetrahydro-quinolin-7-yl)-pyridin-3-yl]-[1,8]naphthyridine] | < 100 nM | 100 to 1000 nM |
| NCCc1ccccc1-c1cncc(-c2cc(-c3cc(Cl)ccc3F)nc3ncccc23)c1 [compound 152, 2-(2-{5-[2-(5-Chloro-2-fluoro-phenyl)-[1,8]naphthyridin-4-yl]-pyridin-3-yl}-phenyl)-ethylamine] | 1000 to 10000 nM | 1000 to 10000 nM |
| Fc1ccc(Cl)cc1-c1cc(-c2cncc(-c3ccc(CCN4CCOCC4)cc3)c2)c2cccnc2n1 [compound 153, 2-(5-Chloro-2-fluoro-phenyl)-4-{5-[4-(2-morpholin-4-yl-ethyl)-phenyl]-pyridin-3-yl}-[1,8]naphthyridine] | < 100 nM | < 100 nM |
| Fc1ccc(Cl)cc1-c1cc(-c2cncc(-c3ccc4c(c3)CCNC4)c2)c2cccnc2n1 [compound 155, 2-(5-Chloro-2-fluoro-phenyl)-4-[5-(1,2,3,4-tetrahydro-isoquinolin-6-yl)-pyridin-3-yl]-[1,8]naphthyridine] | < 100 nM | < 100 nM |
| CC1(C)CC(=O)Nc2ccc(-c3cncc(-c4cc(-c5cc(Cl)ccc5F)nc5ncccc45)c3)cc21 [compound 157, 6-{5-[2-(5-Chloro-2-fluoro-phenyl)-[1,8]naphthyridin-4-yl]-pyridin-3-yl}-4,4-dimethyl-3,4-dihydro-1H-quinolin-2-one] | 100 to 1000 nM | 100 to 1000 nM |
| N#Cc1cccc(-c2cncc(-c3cc(-c4cc(Cl)ccc4F)nc4ncccc34)c2)n1 [compound 160, 5′-[2-(5-Chloro-2-fluoro-phenyl)-[1,8]naphthyridin-4-yl]-[2,3′]bipyridinyl-6-carbonitrile] | > 10000 nM | > 10000 nM |
| CN(C)CCc1ccc(-c2cncc(-c3cc(-c4cc(Cl)ccc4F)nc4ncccc34)c2)cc1 [compound 162, [2-(4-{5-[2-(5-Chloro-2-fluoro-phenyl)-[1,8]naphthyridin-4-yl]-pyridin-3-yl}-phenyl)-ethyl]-dimethyl-amine] | < 100 nM | < 100 nM |

Now from value to compound:

| IC50 [1] | IC50 [2] | Compound |
| --- | --- | --- |
| 100 to 1000 nM | < 100 nM | NC(=O)COc1ccc(-c2cncc(-c3cc(-c4cc(Cl)ccc4F)nc4ncccc34)c2)cc1 [compound 138, 2-(4-{5-[2-(5-Chloro-2-fluoro-phenyl)-[1,8]naphthyridin-4-yl]-pyridin-3-yl}-phenoxy)-acetamide] |
| < 100 nM | < 100 nM | CN(C)CCCOc1ccc(-c2cncc(-c3cc(-c4cc(Cl)ccc4F)nc4ncccc34)c2)cc1 [compound 139, [3-(4-{5-[2-(5-Chloro-2-fluoro-phenyl)-[1,8]naphthyridin-4-yl]-pyridin-3-yl}-phenoxy)-propyl]-dimethyl-amine] |
| 100 to 1000 nM | < 100 nM | NCCOc1cccc(-c2cncc(-c3cc(-c4cc(Cl)ccc4F)nc4ncccc34)c2)c1 [compound 143, 2-(3-{5-[2-(5-Chloro-2-fluoro-phenyl)-[1,8]naphthyridin-4-yl]-pyridin-3-yl}-phenoxy)-ethylamine] |
| 1000 to 10000 nM | 100 to 1000 nM | Fc1ccc(Cl)cc1-c1cc(-c2cncc(-c3ccc4c(c3)CCN4)c2)c2cccnc2n1 [compound 154, 2-(5-Chloro-2-fluoro-phenyl)-4-[5-(2,3-dihydro-1H-indol-5-yl)-pyridin-3-yl]-[1,8]naphthyridine] |
| < 100 nM | < 100 nM | Fc1ccc(Cl)cc1-c1cc(-c2cncc(-c3ccc(OCCN4CCCC4)cc3)c2)c2cccnc2n1 [compound 156, 2-(5-Chloro-2-fluoro-phenyl)-4-{5-[4-(2-pyrrolidin-1-yl-ethoxy)-phenyl]-pyridin-3-yl}-[1,8]naphthyridine] |
| < 100 nM | < 100 nM | Fc1ccc(Cl)cc1-c1cc(-c2cncc(-c3cccc(OCCN4CCCC4)c3)c2)c2cccnc2n1 [compound 158, 2-(5-Chloro-2-fluoro-phenyl)-4-{5-[3-(2-pyrrolidin-1-yl-ethoxy)-phenyl]-pyridin-3-yl}-[1,8]naphthyridine] |
| 100 to 1000 nM | < 100 nM | Fc1ccc(Cl)cc1-c1cc(-c2cncc(-c3cccc(C4CCNCC4)c3)c2)c2cccnc2n1 [compound 159, 2-(5-Chloro-2-fluoro-phenyl)-4-[5-(3-piperidin-4-yl-phenyl)-pyridin-3-yl]-[1,8]naphthyridine] |
| < 100 nM | < 100 nM | Fc1ccc(Cl)cc1-c1cc(-c2cncc(-c3ccc(OCCN4CCOCC4)cc3)c2)c2cccnc2n1 [compound 161, 2-(5-Chloro-2-fluoro-phenyl)-4-{5-[4-(2-morpholin-4-yl-ethoxy)-phenyl]-pyridin-3-yl}-[1,8]naphthyridine] |
| < 100 nM | < 100 nM | CN1CCc2ccc(-c3cncc(-c4cc(-c5cc(Cl)ccc5F)nc5ncccc45)c3)cc2C1 [compound 163, 2-(5-Chloro-2-fluoro-phenyl)-4-[5-(2-methyl-1,2,3,4-tetrahydro-isoquinolin-7-yl)-pyridin-3-yl]-[1,8]naphthyridine] |

Source: US8912216B2, “Hetaryl-[1,8]naphthyridine derivatives” (Merck Patent GmbH, priority 2010, dated 2014)
